Experimental data as given in US10183032B2, “Methods for treating bacterial infection” (Ball State Innovation Corporation, priority 2012, dated 2019).

Key:
[1] = test system: vinculin-containing adhesion complexes; test: Vinculin-containing adhesion complexes in HUVEC; format: cell-based, human; conditions: ML 141 10 μM, 18-20 h, vehicle control 64%
Method: FIG. 10A is an image depicting ML 141 inhibition of CDC42 limiting the formation of adhesion complexes. Human umbilical vein endothelial cells (HUVEC) were incubated (18-20 h) with the vehicle control dimethyl sulfoxide (DMSO) or with ML 141 (10 μM). Pretreated HUVEC were fixed, permeabilized, blocked, and stained with anti-vinculin followed by anti-mouse Alexa Fluor 488. Arrows indicate vinculin-containing complexes. Data are presented as the % of cells where vinculin-containing adhesion complexes were detected. 100-200 cells/treatment were evaluated from randomly selected fields (p<0.001 by χ^2). Scale bar 50 μm.

RAW 264.7 cells = test: Cytotoxicity by propidium iodide, RAW 264.7 cells; format: cell-based; conditions: RAW 264.7 pretreated 18-20 h
Staphylococcus aureus [2] = test: S. aureus invasion in all cell types examined; format: cell-based; conditions: HUVEC, HEK, U-87 MG, RAW and A549
Method: Two days prior to the assay, TSB is inoculated with S. aureus (American Type Culture Collection #29213) and incubated overnight (225 rpm, 37° C.). Bacteria are subcultured the next day into fresh TSB. On the day of the assay, bacteria are pelleted (10000×g, 37° C., 3 min), are washed in saline, are pelleted as above, are resuspended in saline, then fluorescently labeled by incubation with rabbit anti-mouse IgG Alexa Fluor 488 (final concentration 8 μg/ml, RT, 20 min). Protein A, a S. aureus cell surface protein, avidly binds IgG thereby labeling the bacteria. Labeled bacteria are washed twice as above and are resuspended to 3×10^8 CFU/ml in saline. Host cells are incubated with the bacteria for 1 hour (1.2×10^8 CFU/ml for same-day recovery, 5×10^6 for recovery after 48 hours, 1.4×10^7 CFU/ml; 5% CO2, 37° C.). […] To detect the level of infection using flow cytometry, cells that have been infected with fluorescently-labeled bacteria are washed extensively with PBS, lifted from 96-well plate by incubation with trypsin, washed extensively in FACS buffer (2% BSA/0.1% sodium azide/PBS), fixed (FACS buffer containing 0.74% formaldehyde), and are counted using an Accuri flow cytometer (BD, Franklin Lakes, N.J.). They are also lifted from culture dishes using cell scrapers, pelleted, fixed (1% BSA/0.74% formaldehyde/PBS), and are counted using an Accuri flow cytometer. […]

Staphylococcus aureus [3] = test: Staphylococcus aureus host cell invasion assay in HUVEC, flow cytometry; format: cell-based
Method: In one embodiment, human umbilical vein endothelial cells (HUVEC, Life Technologies) are cultured in M200 medium supplemented with LSGS. RAW 264.7 cells (American Type Culture Collection, ATCC, Manassas, Va.) are cultured in RPMI supplemented with 10% FBS and L-glutamine. All cell types are maintained at 5% CO2, 37° C., in 75 cm^2 vented cap flasks (Thermo-Fisher). For assays, cultured cells are plated at 1×10^5 cells/ml in 35 mm culture dishes coated with Attachment Factor. The next day, cells are pretreated in culture medium containing the vehicle control or ML 141. For compound delivery, ML 141 first is suspended into DMSO or into PEG at a concentration of 5 mM. The 5 mM solution is diluted to 1 mM in the solvent and then diluted to the final concentration for each experiment in either serum-containing or serum-free medium. For vehicle control treatment, the same volume of PEG or DMSO as that of ML 141 is added to medium. The following day, the invasion assay is performed. For the shorter duration experiments, compound is added on the same day as the invasion assay, 1 hour prior to bacteria.
In another embodiment, HUVEC (Millipore, Billerica, Mass.) are cultured in EndoGRO LS Complete Media (Millipore) and are maintained at 5% CO2, 37° C., in 75 cm^2 vented cap flasks (Thermo-Fisher). For the invasion assay, cultured cells are plated at 1×10^4 cells/ml in 96-well culture dishes coated with Attachment Factor. The next day, cells are pretreated in culture medium containing the vehicle control, ML 141, or ML 141 structural analog. For compound delivery, ML 141 and structural analogs first are suspended into PEG at a concentration of 5 mM. The 5 mM solution is diluted to 1 mM in the solvent and then is diluted to the final concentration for each experiment in serum containing medium. For vehicle control treatment, the same volume of PEG as that of ML 141 or of ML 141 structural analog is added to the medium. The following day, the invasion assay is performed. Bacteria are added directly to medium containing vehicle control, ML 141, or the ML 141 structural analog.
Two days prior to the assay, TSB is inoculated with S. aureus (American Type Culture Collection #29213) and incubated overnight (225 rpm, 37° C.). Bacteria are subcultured the next day into fresh TSB. On the day of the assay, bacteria are pelleted (10000×g, 37° C., 3 min), are washed in saline, are pelleted as above, are resuspended in saline, then fluorescently labeled by incubation with rabbit anti-mouse IgG Alexa Fluor 488 (final concentration 8 μg/ml, RT, 20 min). Protein A, a S. aureus cell surface protein, avidly binds IgG thereby labeling the bacteria. Labeled bacteria are washed twice as above and are resuspended to 3×10^8 CFU/ml in saline. Host cells are incubated with the bacteria for 1 hour (1.2×10^8 CFU/ml for same-day recovery, 5×10^6 for recovery after 48 hours, 1.4×10^7 CFU/ml; 5% CO2, 37° C.). Following infection, extracellular bacteria are removed by extensive washes with PBS and incubation of the host cells with antimicrobials that have limited mammalian membrane permeability (lysostaphin, 20 μg/ml and gentamicin, 50 μg/ml; 45 min for same-day recovery studies, 48 hours for 2-day recovery studies; 5% CO2, 37° C.). To detect the level of infection using flow cytometry, cells that have been infected with fluorescently-labeled bacteria are washed extensively with PBS, lifted from 96-well plate by incubation with trypsin, washed extensively in FACS buffer (2% BSA/0.1% sodium azide/PBS), fixed (FACS buffer containing 0.74% formaldehyde), and are counted using an Accuri flow cytometer (BD, Franklin Lakes, N.J.). They are also lifted from culture dishes using cell scrapers, pelleted, fixed (1% BSA/0.74% formaldehyde/PBS), and are counted using an Accuri flow cytometer. For enumeration of the infecting bacteria, intracellular bacteria are released from host cells using 1% saponin/PBS (20 min, 5% CO2, 37° C.) and serial dilutions are plated on TSA (16 hours, 37° C.). […]

COc1ccc(C2CC(c3ccccc3)=NN2c2ccc(S(N)(=O)=O)cc2)cc1 (centres unmarked) [ML 141, 4-[3-(4-methoxyphenyl)-5-phenyl-3,4-dihydropyrazol-2-yl]benzenesulfonamide]
% of cells with vinculin-containing adhesion complexes [1]: 37% | Mean fluorescence intensity (×10^3 ± SEM), Compound (10 μM) (RAW 264.7 cells): 2.5 ± 0.3 ×10^3 | inhibition of invasion in all cell types examined (Staphylococcus aureus [2]): inhibited invasion | decrease of invasion (Staphylococcus aureus [3]; ML 141 10.0 μM in PEG, 18 hours, HUVEC infected 1 hour): more than 80% | inhibition at 10 µM (Staphylococcus aureus [3]; Staphylococcus aureus, HUVEC, 18 h, read-out: inhibition of invasion): ~50%
